Residue numbers refer to the chain shown, from its start. Read-outs that look alike come from different tables or passages of the source.
Legend:
human 3β-HSD2 [1] = molecular target: T1, human 3β-HSD2 (Homo sapiens, UniProt P26439); test: Michaelis-Menten kinetics of 3β-HSD substrate; type: biochemical; conditions: pH 7.4
T1 sequence (P26439 1-372): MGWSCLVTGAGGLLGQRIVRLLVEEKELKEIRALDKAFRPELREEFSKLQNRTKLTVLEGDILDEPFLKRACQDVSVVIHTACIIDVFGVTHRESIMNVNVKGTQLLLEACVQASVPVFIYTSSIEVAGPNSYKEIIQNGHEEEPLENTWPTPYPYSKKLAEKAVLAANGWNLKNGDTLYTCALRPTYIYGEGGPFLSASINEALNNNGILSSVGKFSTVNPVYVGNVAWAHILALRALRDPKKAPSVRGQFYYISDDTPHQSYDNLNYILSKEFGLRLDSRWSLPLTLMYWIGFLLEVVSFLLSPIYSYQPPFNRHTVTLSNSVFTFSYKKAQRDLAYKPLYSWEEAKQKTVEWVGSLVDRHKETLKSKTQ

[2] = molecular target: T2, R195P-1 mutant of 3β-HSD1 (Homo sapiens, UniProt P14060, R196P); test: Michaelis-Menten kinetics of 3β-HSD substrate; type: biochemical; conditions: Table 2, substrate DHEA 1–100 μM, NAD+ 0.2 mM, pH 7.4
T2 sequence (P14060 1-373 R196P): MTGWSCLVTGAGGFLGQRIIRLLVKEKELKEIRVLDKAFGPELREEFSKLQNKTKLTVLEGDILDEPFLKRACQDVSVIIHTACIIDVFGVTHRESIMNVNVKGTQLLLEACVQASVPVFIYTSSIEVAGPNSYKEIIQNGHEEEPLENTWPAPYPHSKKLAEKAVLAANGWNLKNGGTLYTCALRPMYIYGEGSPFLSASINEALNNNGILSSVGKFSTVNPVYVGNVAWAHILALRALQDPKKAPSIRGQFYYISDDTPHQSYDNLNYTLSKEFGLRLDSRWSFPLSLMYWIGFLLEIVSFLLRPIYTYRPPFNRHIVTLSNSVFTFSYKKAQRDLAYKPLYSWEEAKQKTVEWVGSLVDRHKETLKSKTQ

[3] = molecular target: T3, P195R-2 mutant of 3β-HSD2 (Homo sapiens, UniProt P26439, P195R); test: Michaelis-Menten kinetics of 3β-HSD substrate; type: biochemical; conditions: Table 2, substrate DHEA 1–100 μM, NAD+ 0.2 mM, pH 7.4
T3 sequence (P26439 1-372 P195R): T1 sequence (P26439 1-372) with P195R

human 3β-HSD1 [4] = molecular target: T4, human 3β-HSD1 (Homo sapiens, UniProt P14060); test: Michaelis-Menten kinetics of 3β-HSD substrate; type: biochemical; conditions: pH 7.4
[5] = molecular target: T5, H156Y-1 mutant of 3β-HSD1 (Homo sapiens, UniProt P14060, H157Y); test: Michaelis-Menten kinetics of 3β-HSD substrate; type: biochemical; conditions: Table 4; substrate DHEA 3-100 μM, NAD+ 200 μM, 27° C, pH 7.4
T5 sequence (P14060 1-373 H157Y): T2 sequence (P14060 1-373 R196P) with H157Y, P196R

human 3β-HSD1 [6] = molecular target: T4, human 3β-HSD1; test: Inhibition of 3β-HSD activity of purified enzyme, Dixon analysis; type: biochemical
[7] = system: MCF-7 Tet-off 3β-HSD1 aromatase cells; conditions: cited from earlier work
human 3β-HSD2 [8] = molecular target: T1, human 3β-HSD2; test: Inhibition of 3β-HSD activity of purified enzyme, Dixon analysis; type: biochemical
[9] = system: MCF-7 Tet-off 3β-HSD2 aromatase cells; conditions: read-out: IC50, proliferation; DHEA-stimulated growth; cited from earlier work
[10] = molecular target: T5, H156Y-1 mutant of 3β-HSD1; test: Inhibition of 3β-HSD activity of purified enzyme, Dixon analysis; type: biochemical
[11] = system: other enzymes in steroidogenesis (e.g., 17β-HSD); conditions: cited from earlier work
[12] = system: MCF-7 Tet-off 3β-HSD1 aromatase cells; conditions: read-out: EC50, stimulation of growth; cited from earlier work
[13] = system: MCF-7 Tet-off 3β-HSD2 aromatase cells; conditions: read-out: EC50, stimulation of growth; cited from earlier work
[14] = system: MCF-7 Tet-off 3β-HSD1 aromatase cells; test: Inhibition of DHEA-stimulated proliferation; conditions: for inhibition of growth in the presence of doxycycline: doxycycline 10 ng/ml, DHEA 5.0 nM
MCF-7 cells = test: Proliferation in the absence of DHEA substrate; type: cell-based, human
[15] = system: MCF-7 Tet-off 3β-HSD2 aromatase cells; test: Inhibition of DHEA-stimulated proliferation; type: cell-based, human; conditions: for IC50: Homo sapiens, MCF7, 240 h, read-out: IC50, proliferation; for inhibition of growth in the presence of doxycycline: doxycycline 10 ng/ml, DHEA 5.0 nM
[16] = molecular target: T2, R195P-1 mutant of 3β-HSD1; test: Inhibition of 3β-HSD activity of purified enzyme, Dixon analysis; type: biochemical
[17] = Table 2, substrate DHEA 1–100 μM, NAD+ 0.2 mM
[18] = Table 4, substrate DHEA 3-100 μM, NAD+ 200 μM, 27° C
[19] = ratio of proliferation IC50 values

T4 sequence (P14060 whole entry): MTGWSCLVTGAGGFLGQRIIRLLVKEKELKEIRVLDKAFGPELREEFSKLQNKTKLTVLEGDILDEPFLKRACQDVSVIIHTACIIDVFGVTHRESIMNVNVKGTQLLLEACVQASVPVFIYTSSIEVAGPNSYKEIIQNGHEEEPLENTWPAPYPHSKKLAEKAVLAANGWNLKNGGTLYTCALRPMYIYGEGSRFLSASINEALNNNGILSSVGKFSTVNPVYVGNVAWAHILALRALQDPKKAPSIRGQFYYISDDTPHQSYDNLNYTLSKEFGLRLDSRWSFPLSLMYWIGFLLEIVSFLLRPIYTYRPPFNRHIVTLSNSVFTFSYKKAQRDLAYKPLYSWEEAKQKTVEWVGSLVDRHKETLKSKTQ

C[C@]12CC[C@H](O)CC1=CC[C@@H]1[C@@H]2CC[C@]2(C)C(=O)CC[C@@H]12 [DHEA, dehydroepiandrosterone]
3β-HSD kcat (human 3β-HSD2 [1]; [17]): 0.145 s⁻¹ | 3β-HSD kcat (human 3β-HSD2 [1]; [18]): 0.118 s⁻¹ | 3β-HSD kcat [2]: 0.128 s⁻¹ | Km ([2]; read-out: 3β-HSD Km): 10.7 µM | 3β-HSD kcat [3]: 0.0933 s⁻¹ | Km ([3]; read-out: 3β-HSD Km): 7.7 µM | 3β-HSD kcat (human 3β-HSD1 [4]; [17]): 0.055 s⁻¹ | 3β-HSD kcat (human 3β-HSD1 [4]; [18]): 0.055 s⁻¹ | 3β-HSD kcat [5]: 0.118 s⁻¹

C[C@]1(O)CC[C@H]2[C@@H]3CC[C@@]45O[C@]4(C)C(O)=C(C#N)C[C@]5(C)[C@H]3CC[C@@]21C [epostane]
Ki (human 3β-HSD1 [6]): 70 nM | fold higher affinity vs MCF7 Tet-off 3β-HSD2 aromatase cells [7, 19]: 12 fold | IC50 ([7]; read-out: IC50, proliferation, DHEA-stimulated growth): 200 nM | Ki (human 3β-HSD2 [8]): 980 nM | IC50 [9]: 2400 nM | Ki [10]: 1180 nM | effect on other enzymes in steroidogenesis [11]: no effect

C[C@]12CC[C@@H]3c4ccc(O)cc4CC[C@H]3[C@@H]1CC[C@@H]2O [estradiol]
EC50 [12]: 0.24 nM | EC50 [13]: 0.32 nM

C[C@]12CC[C@@H]3c4ccc(O)cc4CC[C@H]3[C@@H]1CCC2=O [estrone]
EC50 [12]: 0.39 nM | EC50 [13]: 0.34 nM

N#Cc1ccc(C(c2ccc(C#N)cc2)n2cncn2)cc1 [letrozole]
inhibition of growth in the presence of doxycycline [14]: little change in rate | stimulation of proliferation / ER-agonist activity (MCF-7 cells): Neither trilostane nor letrozole stimulated the proliferation | IC50 [15]: 0.9 nM | inhibition of growth in the presence of doxycycline [15]: little change in rate

C[C@]12CC[C@H]3[C@@H](CC[C@@]45O[C@@H]4C(O)=C(C#N)C[C@]35C)[C@@H]1CC[C@@H]2O [trilostane, 2α-cyano-4α ,5α-epoxy-17β-ol-androstane-3-one]
fold lower Ki for 3β-HSD1 compared to 3β-HSD2 (human 3β-HSD1 [6]; competitive 3β-HSD1 vs noncompetitive 3β-HSD2): 16 fold | IC50 ([14]; Homo sapiens, MCF7, 240 h, read-out: IC50, proliferation): 300 nM | inhibition of growth in the presence of doxycycline [14]: greatly attenuated | fold higher affinity vs MCF7 Tet-off 3β-HSD2 aromatase cells [14, 19]: 16 fold | stimulation of proliferation / ER-agonist activity (MCF-7 cells): Neither trilostane nor letrozole stimulated the proliferation | Ki [16]: 2560 ± 220 nM | mode of inhibition ([16]; Dixon analysis): noncompetitive | mode of inhibition (human 3β-HSD2 [8]; Dixon analysis): noncompetitive | IC50 [15]: 4900 nM | inhibition of growth in the presence of doxycycline [15]: greatly attenuated | effect on other enzymes in steroidogenesis [11]: no effect

From article PMC2999670 (The Journal of steroid biochemistry and molecular biology, 2010)
